Experimental data: article PMC11407372, “New imidazolidindionedioximes and their Pt(II) complexes: synthesis and investigation of their antitumoral activities on breast cancer cells” (Turkish Journal of Chemistry, 2024)

Columns and labels:
[1] = test system: MCF-7 cells; assay: Apoptosis assay (Annexin V/7-AAD, flow cytometry); assay type: cell-based, human; settings: sample at IC50 concentration, 24 h
Protocol: (§1) FITC-Annexin V/7-AAD kit was used for the apoptosis experiment. Briefly, the cells were seeded into 12-well plates at 2 × 10^5 cells/well in 1 mL volume and cells were inoculated overnight. After that, 500 μL of fresh medium and 500 μL of sample at the concentration of IC50 were added to the wells. The cells were incubated with the samples for 24 h, then detached using 0.5 mL of trypsin solution, cells were collected and centrifuged at 3000 g for 3 min. The cells were washed with 200 μL of cell staining buffer, then dispersed in 100 μL of binding buffer. Following this, 5 μL of FITC-Annexin V and 10 μL of 7-AAD were added, and the mixture was incubated in the dark for 30 min. The samples were then analyzed by flow cytometry.
The Annexin V conjugated Alexa Fluor 488/7-AAD binding assay is based on the difference in fluorescence intensity between apoptotic and nonapoptotic cells stained with the fluorescent Annexin V/7-AAD, which is measured by flow cytometry. Therefore, an apoptosis assay was performed to determine the rate of live, apoptotic, and necrotic cells (Table 2, Figure S43). […]

[2] = test system: CCD-1079Sk cells; assay: Apoptosis assay (Annexin V/7-AAD, flow cytometry); assay type: cell-based; settings: sample at IC50 concentration, 24 h
Protocol: as §1
(§2) The Annexin V conjugated Alexa Fluor 488/7-AAD binding assay is based on the difference in fluorescence intensity between apoptotic and nonapoptotic cells stained with the fluorescent Annexin V/7-AAD, which is measured by flow cytometry. Therefore, an apoptosis assay was performed to determine the rate of live, apoptotic, and necrotic cells (Table 2, Figure S43). It is seen that compounds induce early and late apoptosis in MDA-MB-231 cells.

[3] = test system: MDA-MB-231 cells; assay: Cell cycle assay (PI, flow cytometry); assay type: cell-based, human; settings: for effect on cell cycle: summary in conclusion, MDA-MB-231 and/or MCF-7; for MDA-MB-231 cell population in the G1-phase: sample at IC50 concentration, 24 h, 24.5% in control cells
Protocol: (§3) The cell cycle kit was used for the cell cycle experiment. Briefly, the cells were seeded into 12-well plates in a volume of 1 mL at 2 × 10^5 cells/well, and cells were inoculated overnight. After that, 500 μL of fresh medium and 500 μL of the sample at the concentration of IC50 were added to the wells. The cells were incubated with the samples for 24 h, then detached using 0.5 mL of trypsin solution, cells were collected and centrifuged at 3000 g for 3 min. The collecting cells were washed with 1 mL of PBS and fixed with 1 mL of 70% cold ethanol at −20 °C for 24 h. After that, 200 μL of staining solution containing propidium iodide (PI) and RNAse reagents were added to the cells, and the cells were incubated for 30 min in the dark. Cell cycle profiles of synthesized compounds were analyzed using a flow cytometer (BD Accuri C6). The data were analyzed through BD software. Each assay was investigated in triplicate.

[4] = test system: MCF-7 cells; assay: Cell cycle assay (PI, flow cytometry); assay type: cell-based, human; settings: sample at IC50 concentration, 24 h; 59.5% in control cells
Protocol: as §3

[5] = test system: MCF-7 human breast cancer cell line; assay: MTT cytotoxicity assay; assay type: cell-based; settings: mean ± standard deviation
Protocol: (§4) CCD-1079Sk healthy fibroblast cell line, MCF-7, and MDA-MB-231 breast cancer cell lines were used in this study. The cells were grown in DMEM/F12 medium containing 10% fetal bovine serum (FBS) and 100 U/mL penicillin/streptomycin at 37 °C in a humidified incubator with 5% CO2. After bringing 80% confluency, the cells were detached using a trypsin solution. For further experiments, cells were resuspended in the growth medium after collection and centrifugation.
(§5) To determine cytotoxicity, the MTT assay was performed using L1aPt-m, L1bPt-m, L1cPt-m, L1aPt-b, L1bPt-b, L1cPt-b, cisPt, and bicalutamide (bical) samples at 10 different concentrations ranging from 100 μM to 0.19 μM (100, 50, 25, 12.5, 6.25, 3.12, 1.56, 0.78, 0.39, and 0.19 μM). The samples were dissolved in DMSO and diluted with the medium. Initial DMSO concentration was kept below 1% to avoid toxicity from the solvent. Briefly, the cells were seeded to 96-well plates at 5 × 10^3 cells/well in a volume of 200 μL, and cells were inoculated overnight. After that, old medium was removed, 100 μL of fresh medium and 100 μL of sample were added to the wells. The cells were incubated with the samples for 24 h. At the end of incubation with the samples, 30 μL of 3-(4,5-dimethylthiazol-2-yl)-2,5-diphenyltetrazolium bromide (MTT) solution was added. After 3 h the medium was removed and 100 μL of DMSO was added to dissolve the formazan crystals. Then the absorbance values were recorded at 540 nm using an ELISA microplate reader (Synergy H1, BioTek). All the experiments were carried out in triplicates, and the results were presented as a mean ± standard deviation. The IC50 values of samples were calculated using a percentage of relative cell viability via GraphPad Prism 5. The viability percentages of cells were calculated using the following formula:
(§6) %relative cell viability=(Abssample/Abscontrol)×100.

[6] = test system: CCD-1079Sk healthy fibroblast cell line; assay: MTT cytotoxicity assay; assay type: cell-based; settings: 24 h, mean ± standard deviation
Protocol: as §4, §5, §6

[7] = test system: MDA-MB-231 human breast cancer cell line; assay: MTT cytotoxicity assay; assay type: cell-based; settings: mean ± standard deviation
Protocol: as §4, §5, §6

[8] = test system: MDA-MB-231 cells; assay: Apoptosis assay (Annexin V/7-AAD, flow cytometry); assay type: cell-based, human; settings: sample at IC50 concentration, 24 h
Protocol: as §1, §2

SMILES	apoptosis induction in MCF-7 cells [1]	cell % Apoptotic, MCF-7 [1]	cell % Necrotic, MCF-7 [1]	cell % Apoptotic, CCD-1079Sk [2]	cell % Necrotic, CCD-1079Sk [2]	effect on cell cycle [3]	MCF-7 cell population in the G1-phase [4]	IC50 ([5]; 24 h)	IC50 [6]	IC50 ([7]; 24 h)	cell % Apoptotic, MDA-MB-231 [8]	cell % Necrotic, MDA-MB-231 [8]	MDA-MB-231 cell population in the G1-phase [3]	IC50 ([5]; Homo sapiens, MCF7, 24 h)	IC50 ([6]; Fibroblast)	IC50 ([7]; Homo sapiens, MDA-MB-231, 24 h)
[O-]N=C1C(=NO)N(c2ccc(F)cc2F)CN1c1ccc(F)cc1F.[O-]N=C1C(=NO)N(c2ccc(F)cc2F)CN1c1ccc(F)cc1F.[Pt+2] [L 1c Pt-b]	induces more cancerous cells to undergo apoptosis	2.05 ± 0.03%	5.35 ± 1.34%	1.85 ± 0.03%	1.80 ± 0.14%	regulate the cell cycle and increase the G1 population	64.1%	5.9 ± 2.04 µM	73.9 ± 4.96 µM	6.94 ± 5.57 µM	8.00 ± 0.21%	3.20 ± 0.14%	–	–	–	–
N.N.[Cl][Pt][Cl] [CisPt, cis-diamminedichloroplatinum(II), reference compound]	–	3.45 ± 0.03%	1.10 ± 0.14%	5.00 ± 0.07%	3.90 ± 0.14%	–	–	3.98 ± 1.44 µM	27.9 ± 7.24 µM	9.16 ± 7.74 µM	14.95 ± 0.74%	1.55 ± 0.21%	–	–	–	–
[O-]N=C1C(=NO)N(c2ccc(F)cc2)CN1c1ccc(F)cc1.[O-]N=C1C(=NO)N(c2ccc(F)cc2)CN1c1ccc(F)cc1.[Pt+2] [L 1b Pt-b]	–	2.95 ± 0.11%	2.20 ± 0.14%	1.90 ± 0.07%	1.25 ± 0.07%	–	–	9.57 ± 5.41 µM	67.9 ± 5.11 µM	9.73 ± 7.28 µM	7.45 ± 0.39%	2.65 ± 0.07%	–	–	–	–
[O-]N=C1C(=NO)N(c2ccccc2)CN1c1ccccc1.[O-]N=C1C(=NO)N(c2ccccc2)CN1c1ccccc1.[Pt+2] [L 1a Pt-b]	–	4.65 ± 0.81%	0.95 ± 0.35%	3.65 ± 0.03%	4.15 ± 0.21%	regulate the cell cycle and increase the G1 population	64.4%	5.58 ± 2.29 µM	47.8 ± 6.42 µM	5.26 ± 5.53 µM	7.65 ± 0.25%	1.15 ± 0.07%	49.6%	–	–	–
O[N+]1=C2C(=[N+](O)[Pt-2]1([Cl])[Cl])N(c1ccc(F)cc1)CN2c1ccc(F)cc1 [L 1b Pt-m]	–	3.65 ± 0.18%	0.95 ± 0.21%	–	–	–	–	6.91 ± 3.16 µM	54.6 ± 6.25 µM	8.64 ± 7.71 µM	5.95 ± 0.25%	0.65 ± 0.07%	–	–	–	–
CC(O)(CS(=O)(=O)c1ccc(F)cc1)C(=O)Nc1ccc(C#N)c(C(F)(F)F)c1 (centres unmarked) [Bical, bicalutamide, reference compound]	–	2.05 ± 0.03%	6.35 ± 1.20%	5.10 ± 0.21%	–	–	–	–	–	–	6.70 ± 0.28%	1.95 ± 0.21%	–	3.78 ± 1.85 µM	9.16 ± 3.18 µM	8.34 ± 6.39 µM
O[N+]1=C2C(=[N+](O)[Pt-2]1([Cl])[Cl])N(c1ccccc1)CN2c1ccccc1 [L 1a Pt-m]	induces more cancerous cells to undergo apoptosis	–	5.45 ± 1.06%	2.65 ± 0.11%	–	regulate the cell cycle and increase the G1 population	–	8.97 ± 5.28 µM	59.5 ± 5.34 µM	9.63 ± 7.71 µM	9.35 ± 0.46%	0.65 ± 0.21%	36.1%	–	–	–
O[N+]1=C2C(=[N+](O)[Pt-2]1([Cl])[Cl])N(c1ccc(F)cc1F)CN2c1ccc(F)cc1F [L 1c Pt-m]	induces more cancerous cells to undergo apoptosis	5.95 ± 0.46%	3.40 ± 0.71%	3.45 ± 0.03%	3.25 ± 0.07%	–	–	5.56 ± 2.39 µM	45.2 ± 5.55 µM	25 ± 6.61 µM	6.20 ± 0.14%	0.55 ± 0.07%	–	–	–	–
